Broadly, the melting point is the temperature, or range, at which the solid turns liquid. `CC(=O)NCCc1cccc2ccc(OCCCCCCOc3ccc4cccc(CCNC(C)=O)c4c3)cc12` [Example 17, N-[2-(7-{[6-({8-[2-(Acetylamino)ethyl]-2-naphthyl}oxy)hexyl]oxy}-1-naphthyl)ethyl]acetamide] showed a melting point of 142 to 144 °C.
